Measured values from patent US12642780B2, “Methods and compositions to treat and prevent viral infections and acute respiratory distress syndrome” (priority 2020, dated 2026).
Like-named read-outs stand apart in the source and are kept apart here.

How the values were obtained:
BMDM [1] = assay: Q-PCR quantitation of cytokine mRNAs in LPS-stimulated BMDM; assay type: cell-based, mouse
Procedure: RNA was extracted using AllPrep DNA/RNA Mini kit, and cDNA was synthesized using SuperScript™ VILO™ cDNA Synthesis Kit. mRNA expression was determined by QPCR in a CFX96 thermal cycler (Biorad) as described (Zhong et al., 2016). Data are presented in arbitrary units and calculated by the 2^(−ΔΔCT) method. Primer sequences were obtained from the NIH qPrimerDepot (http://mouseprimerdepot.nci.nih.gov) and provided by Integrated DNA technologies.

NLRP3 inflammasome [2] = assay: NLRP3 inflammasome activation in human macrophages; assay type: cell-based; settings: LPS 20 ng/ml 3 hrs, ATP 2 mM 30 min, metformin 0.5 mM 16 hrs
mtDNA = mtDNA synthesis and cytosolic Ox-mtDNA in BMDM; assay type: cell-based, mouse
Procedure: To image mtDNA synthesis, BMDM were stimulated with LPS ([…]) for 4 hrs in the presence of 10 μM EdU. Cells were then washed twice with sterile PBS and fixed in 4% PFA for 15 min followed by permeabilization with 0.02% Triton X-100 for 10 min. EdU staining was performed using a Click-iT EdU Microplate Assay Kit (Thermo Fisher Scientific). In brief, BMDMs were postfixed in EdU fixative for 5 min, and equal volumes of the EdU reaction cocktail, which was prepared immediately before use, were added to each chamber and left overnight. Primary antibody against the mitochondrial marker Atp5b was included in the EdU reaction cocktail. The next day, the BMDM were washed three times with PBS followed by incubation with secondary Alexa antibodies from Life Technologies or Jackson Immuno Research Laboratories. DAPI was used for nuclear counterstaining.
Total DNA was isolated using Allprep DNA/RNA Mini Kit (catalogue 80204, Qiagen) according to manufacturer's instructions. mtDNA was quantified by qPCR using primers specific for the mitochondrial D-loop region, cytochrome c oxidase (COX) or a specific region of mtDNA that is not inserted into nuclear DNA (non-NUMT) (Zhong et al., 2018). Nuclear DNA encoding Teri, 18S ribosomal RNA and B2m was used for normalization.
Cellular fractionation was performed using Mitochondrial Isolation kit (89874, ThermoScientific) according to manufacturer's instructions. Cytosolic mtDNA was analyzed as described (Nakahira et al., 2011). For the measurement of Ox-mtDNA, mtDNA was first purified using Allprep DNA/RNA mini kit (Qiagen) from the cytosolic fraction of BMDM as described above. The 8-OH-dG content of the mtDNA was then quantified using an 8-OHdG quantification kit (ab201734), per manufacturer's instructions.

Il6 and Il1b promoters = assay: ChIP-qPCR of transcription factor recruitment to Il6 and Il1b promoters in BMDM; assay type: cell-based, mouse; settings: LPS
Procedure: Cells were fixed using 0.75% formaldehyde for 10 min followed by 0.125 M glycine to stop the crosslinking reaction. […] Nuclei were pelleted at 1,000 g in a cold microfuge and resuspended in B buffer (50 mM Tris, pH 8.0, 5 mM EDTA and 1% SDS plus inhibitors). […] Nuclear extracts were immunoprecipitated with respective antibodies. The co-immunoprecipitated material was then subjected to qPCR analysis using specific primers.

NLRP3 inflammasome [3] = assay: NLRP3 inflammasome activation in LPS-primed mouse microglia; assay type: cell-based; settings: different NLRP3 activators, metformin 0.5 mM 16 hrs
[4] = test system: alum induced peritonitis model; assay: Alum-induced peritonitis; assay type: in vivo, mouse
in vivo = settings: male, C57BL/6, mouse, ip, 50 mg/kg
Procedure: Pooled mice plasma (CD-1 (ICR) MSE00PLK2, BioIVT) was selected as blank matrix for standards and quality control samples. Sample preparation procedure was adopted from literatures with minor modifications. […] The samples mix were vortexed for 2 minutes then sonicated for 1 min and centrifuged at 6100 g for 10 min. Supernatants were transferred into a new set 96-well plate, and 10 μL were injected for LC-MS/MS analysis. […] The solution was then serially diluted with 50% methanol-water to obtain standard working solutions over a concentration range of 10-2000 ng/ml. The quality control (QC) samples were prepared in three concentrations: 10, 100, and 500 ng/ml.
LC-MS/MS system was performed using an Agilent 1290 Infinity HPLC and HiP ALS (Autosampler) coupled with AB Sciex 6500 Q-Trap mass spectrometer. All data were acquired using Analyst (AB SCIEX v1.7.1). […] The mobile phase A was 20 mM ammonium acetate buffer in water and 100% acetonitrile as mobile phase B. A total 7 min gradient run with a flow rate of 0.8 ml/min was implemented. […] The mass spectrometer was operated in a positive mode using scheduled multiple reaction morning (sMRM).

BMDM [5] = assay: Mitochondrial function in BMDM (TMRM, MitoSOX, cellular ATP); assay type: cell-based, mouse
NLRP3 inflammasome [6] = assay: NLRP3 inflammasome activation in LPS-primed BMDM; assay type: cell-based, mouse
BMDM [7] = settings: for recruitment of DRP1 to mitochondria / recruitment of p62 to mitochondria: metformin 0.5 mM
POLγ = POLγ activity assay in lysates of treated macrophages; assay type: cell-based, mouse
[8] = test system: SARS-CoV-2 USA-WA1/2020 strain; assay: SARS-CoV-2 infection in hACE2 mice; assay type: in vivo, mouse
[9] = BMDM, metformin 0.5 mM 16 h, LPS
[10] = BMDM, LPS 4 hrs, metformin 0.5 mM 16 hrs
[11] = LPS-primed BMDM, metformin 0.5 mM 16 h
[12] = BMDM, metformin 0.5 mM 16 h, LPS 4 h

CN(C)C(=N)NC(=N)N [metformin, N,N-dimethylbiguanide]
Il1b and Il6 mRNA after metformin treatment (BMDM [1]; AMPKα1 silenced (shPrkaa1) LPS-treated macrophages): still declined
decline in Il1b and Il6 mRNA induction by LPS (BMDM [1]; BMDM, metformin 0.5 mM 16 h): 30-50%
induction of Ifnb and Ifng mRNAs (BMDM [1]; [9]): did not inhibit induction
induction of Il10 mRNA (BMDM [1]; [9]): potentiated induction
other cytokine and chemokine mRNAs (Tnf, Il12, Il23, Ccl2, Ccl3, Ccl4, Ccl5) (BMDM [1]; BMDM, metformin 0.5 mM 16 h, LPS 100 ng/ml 4 hrs): little effect
Il1b and Il6 mRNA expression (BMDM [1]; LPS-stimulated Il10−/− BMDM): still inhibited
Casp1 p20 and IL-1β secretion (NLRP3 inflammasome [2]): abrogated
inhibition of LPS-induced mtDNA synthesis by EdU-labelling (mtDNA; [10]): confirmed
LPS-stimulated mtDNA synthesis (mtDNA; [11]): strongly inhibited
generation of cytoplasmic Ox-mtDNA (mtDNA; LPS-primed macrophages challenged with ATP or nigericin, metformin): blocked generation
effect of AMPKα1 silencing on LPS-stimulated mtDNA synthesis and its inhibition by metformin (mtDNA; shPrkaa1 BMDM): no effect
c/EBPβ and NFATc1-4 recruitment to the Il6 promoter (Il6 and Il1b promoters): inhibited
Casp1 p20 and IL-1β secretion (NLRP3 inflammasome [3]): abrogated
peritoneal IL-1β and IL-6 production ([4]; metformin 0, 10, 50 mg/kg 30 min prior to i.p. alum): dose-dependent decline
peritoneal TNF production ([4]; metformin 10 or 50 mg/kg 30 min prior to i.p. alum): no effect
concentration at 1 hr (in vivo): 440 ± 389 ng/mL
ATP or nigericin induced decrease of mitochondrial membrane potential and increase of mtROS (BMDM [5]; [11]): blunted both responses
drop in ATP concentration (BMDM [5]; LPS-primed versus non-stimulated macrophages): larger drop
mitochondrial membrane potential (BMDM [5]; non-stimulated macrophages, metformin alone): decreased
nigericin- and ATP-induced ASC speck formation (NLRP3 inflammasome [6]; BMDM, metformin 0.5 mM 16 h): inhibited
expression of inflammasome components NLRP3, ASC, pro-Casp1 and NEK7 (NLRP3 inflammasome [6]; [12]): no effect
pro-IL 1β protein (NLRP3 inflammasome [6]; [12]): modestly decreased
inhibition of nigericin-induced ASC specks (NLRP3 inflammasome [6]; BMDM, nigericin): incomplete
effect of AMPKα1 ablation on inhibition of Casp1 activation or IL-1β processing and secretion by metformin (NLRP3 inflammasome [6]; LPS-primed Ampkα1−/− BMDM stimulated with ATP): no effect
LDH release (NLRP3 inflammasome [6]; LPS-primed BMDM with NLRP3 agonists, metformin 0.5 mM 16 hrs): reduced
gasdermin D (GSDMD) cleavage (NLRP3 inflammasome [6]; [11]): inhibited
Casp1 activation and pro-IL-1β processing to mature IL-1β (NLRP3 inflammasome [6]; LPS-primed macrophages with ATP, nigericin, alum or MSU, metformin 0.5 mM 16 h): inhibited
IL-1β and Casp1 p20 release (NLRP3 inflammasome [6]; Ndufs4-deficient BMDM, LPS + ATP, metformin 0.5 mM 16 hrs): did not further reduce
effect on Casp1 activation and pro-IL-1β processing (NLRP3 inflammasome [6]; nigericin-challenged macrophages): relatively modest
Casp1 activation and IL-1β secretion (NLRP3 inflammasome [6]; p62- and ATG7-deficient macrophages, LPS + ATP): still inhibited
expression of CMPK2 (BMDM [7]; [10]): no effect
POLγ expression (BMDM [7]; BMDM, metformin): no effect
AMPK phosphorylation (BMDM [7]; BMDM, metformin 0.5 mM 16 h): increased
p38 or JNK MAP kinase activation (BMDM [7]; BMDM, metformin 0.5 mM 16 hrs, LPS 30 min): blunted
nuclear translocation of NFAT family members and c/EBPb (BMDM [7]; BMDM, metformin 0.5 mM 16 hrs, LPS 4 hrs): decreased
LPS-induced p65/RelA nuclear translocation or phosphorylation (BMDM [7]; BMDM, metformin 0.5 mM overnight, LPS): did not interfere
STAT1 or STAT3 phosphorylation (BMDM [7]; BMDM, metformin pretreatment, LPS): did not inhibit
recruitment of DRP1 to mitochondria (BMDM [7]; LPS primed cells): enhancing it
recruitment of DRP1 to mitochondria (BMDM [7]; LPS+ATP challenged macrophages): not affecting it
recruitment of p62 to mitochondria (BMDM [7]; LPS-primed cells not ATP exposed): enhanced
recruitment of p62 to mitochondria (BMDM [7]; after LPS+ATP stimulation): did not affect
POLγ activity (POLγ; lysates of LPS-stimulated macrophages, assay mix lacking exogenous ATP): decreased
effect of AMPKα1 deficiency on POLγ expression or activity (POLγ; lysates of metformin treated LPS stimulated BMDM): no effect
POLγ activity (POLγ; lysates of metformin treated LPS-stimulated macrophages, addition of ATP at 10 mM): fully restored
infection-associated loss of body weight ([8]; day 2 post-inoculation): slowed down
immune cell infiltration, alveolar wall thickening and c/EBPβ activation ([8]; hACE2 Tg mice, 50 mg/kg i.p. from 2 days before infection, 6 days post-infection): reduced
macrophages with ASC specks in lungs ([8]; hACE2 Tg mice, 50 mg/kg, day 6 post-infection): almost none
